System: velvetleaf
Test: Test Example 2: soil surface treatment, upland pot test
Type: in vivo, Abutilon theophrasti MEDIC.
Settings: active ingredient 1000 g/ha, observed 20th to 28th day
Outline: (§1)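 Visual growth-control ratings, from 0 (like the non-treated plot) to 100 (total kill), were made between days 20 and 28 after a soil-surface spray. The compound, formulated as wettable powder or emulsifiable concentrate and diluted at 1,500 L/ha, went on one day post-sowing in upland-soil pots of 1/170,000 ha.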

SMILES	Growth controlling degree (%) Velvetleaf [%]
CC(C)C(c1cnccc1C(F)(F)F)N(C)C(=O)Cc1ccccc1Br (stereo not shown) [I-15]	60

System: soybean
Test: as above
Type: in vivo, Glycine max Merr.
Settings: active ingredient 1000 g/ha, observed 20th to 28th day
Outline: as §1

SMILES	Growth controlling degree (%) Soyabean [%]
CC(C)C(c1cnccc1C(F)(F)F)N(C)C(=O)Cc1ccccc1Br (stereo not shown) [I-15]	20

System: rice
Test: as above
Type: in vivo, Oryza sativa L.
Settings: active ingredient 1000 g/ha, observed 20th to 28th day
Outline: as §1

SMILES	Growth controlling degree (%) Rice [%]
CC(C)C(c1cnccc1C(F)(F)F)N(C)C(=O)Cc1ccccc1Br (stereo not shown) [I-15]	40

System: green foxtail
Test: as above
Type: in vivo, Setaria viridis L.
Settings: active ingredient 1000 g/ha, observed 20th to 28th day
Outline: as §1

SMILES	Growth controlling degree (%) Green foxtail [%]
CC(C)C(c1cnccc1C(F)(F)F)N(C)C(=O)Cc1ccccc1Br (stereo not shown) [I-15]	100

System: wheat
Test: as above
Type: in vivo, Triticum spp.
Settings: active ingredient 1000 g/ha, observed 20th to 28th day
Outline: as §1

SMILES	Growth controlling degree (%) wheat [%]
CC(C)C(c1cnccc1C(F)(F)F)N(C)C(=O)Cc1ccccc1Br (stereo not shown) [I-15]	30

System: velvetleaf
Test: Test Example 1: foliage treatment, upland pot test
Type: in vivo, Abutilon theophrasti MEDIC.
Settings: active ingredient 1000 g/ha, observed 18th to 23rd day, 0 = non-treated, 100 = complete kill

SMILES	Growth controlling degree (%) Velvetleaf [%]
CC(C)C(c1cnccc1C(F)(F)F)N(C)C(=O)Cc1ccccc1Br (stereo not shown) [I-15]	70

System: corn
Test: Test Example 1: foliage treatment, upland pot test
Type: in vivo, Zea mays L.
Settings: crop, active ingredient 1000 g/ha, observed 18th to 23rd day, 0 = non-treated, 100 = complete kill
Outline: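 Corn seeds were sown in upland field soil held in a 1/170,000 ha pot and grown to the 2.1 to 3.2 leaf stage. A wettable powder or emulsifiable concentrate of the test compound was diluted with water at 500 L/ha, given 0.1% (v/v) agricultural spreader, and sprayed onto the foliage with a small sprayer. Growth controlling degree (%) was scored visually 18th to 23rd days later, from 0 (non-treated) to 100 (complete kill).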

SMILES	Growth controlling degree (%) Corn [%]
CC(C)C(c1cnccc1C(F)(F)F)N(C)C(=O)Cc1ccccc1Br (stereo not shown) [I-15]	0

System: redroot pigweed
Test: Test Example 2: soil surface treatment, upland pot test
Type: in vivo, Amaranthus retroflexus L.
Settings: active ingredient 1000 g/ha, observed 20th to 28th day
Outline: as §1

SMILES	Growth controlling degree (%) Redroot pigweed [%]
CC(C)C(c1cnccc1C(F)(F)F)N(C)C(=O)Cc1ccccc1Br (stereo not shown) [I-15]	70

System: tall morningglory
Test: Test Example 1: foliage treatment, upland pot test
Type: in vivo, Ipomoea purpurea L.
Settings: active ingredient 1000 g/ha, observed 18th to 23rd day, 0 = non-treated, 100 = complete kill
Text: Upland field soil was put into a 1/170,000 ha pot, and seed of various plants were sown. Then, when the plants reached predetermined leaf stages ((1) barnyardgrass: 1.3 to 2.8 leaf stages, (2) crabgrass: 1.0 to 2.8 leaf stages, (3) green foxtail: 1.3 to 2.6 leaf stages, (4) redroot pigweed: 0.1 to 1.2 leaf stages, (5) prickly sida: 0.1 to 1.2 leaf stages, (6) velvetleaf: 0.1 to 1.2 leaf stages, (7) tall morningglory: 0.1 to 1.5 leaf stages, (8) rice: 1.2 to 2.6 leaf stages, (9) wheat: 1.3 to 2.4 leaf stages, (10) corn, 2.1 to 3.2 leaf stages, (11) soybean: 0.1 to 0.4 leaf stage), a wettable powder or emulsifiable concentrate having the compound of the present invention formulated in accordance with a usual formulation method, was weighed so that the active ingredient would be a predetermined amount, and diluted with water in an amount of 500 L/ha. To the diluted solution, 0.1% (v/v) of agricultural spreader was added. The herbicide thus adjusted was applied by a small size sprayer for foliage treatment. On the 18th to 23rd days after the application of the herbicide, the growth of the respective plants was visually observed, and the herbicidal effects were evaluated by the growth controlling degrees (%) ranging from 0 (equivalent to the non-treated plot) to 100 (complete kill), whereby the results shown in Table 3, were obtained.

SMILES	Growth controlling degree (%) Tall morningglory [%]
CC(C)C(c1cnccc1C(F)(F)F)N(C)C(=O)Cc1ccccc1Br (stereo not shown) [I-15]	80

System: japanese ribbon wapato
Test: Test Example 3: paddy pot test, application under submerged conditions
Type: in vivo, Sagittaria pygniaea
Settings: active ingredient 250 g/ha; submerged application at primary leaf stage; visually observed 14 days after application; 0 = non-treated, 100 = complete kill
Outline: (§2)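 Seeds were sown in flooded paddy soil (0.5–1 cm water), wapato tubers were planted 1–2 days later, and water was then held at 3–4 cm. Diluted wettable powder or emulsifiable concentrate was pipetted into the water at the 0.5 leaf or primary leaf stage. Growth control was visually scored at 14 days (0–100%).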

SMILES	Growth controlling degree (%) Japanese ribbon wapato [%]
CC(C)C(c1cnccc1C(F)(F)F)N(C)C(=O)Cc1ccccc1Br (stereo not shown) [I-15]	100

System: prickly sida
Test: Test Example 2: soil surface treatment, upland pot test
Type: in vivo, Sida spinosa L.
Settings: active ingredient 1000 g/ha, observed 20th to 28th day
Outline: as §1

SMILES	Growth controlling degree (%) Prickly sida [%]
CC(C)C(c1cnccc1C(F)(F)F)N(C)C(=O)Cc1ccccc1Br (stereo not shown) [I-15]	70

System: corn
Test: as above
Type: in vivo, Zea mays L.
Settings: active ingredient 1000 g/ha, observed 20th to 28th day
Outline: as §1

SMILES	Growth controlling degree (%) Corn [%]
CC(C)C(c1cnccc1C(F)(F)F)N(C)C(=O)Cc1ccccc1Br (stereo not shown) [I-15]	40

System: crabgrass
Test: as above
Type: in vivo, Digitaria sanguinalis L.
Settings: active ingredient 1000 g/ha, observed 20th to 28th day
Outline: as §1

SMILES	Growth controlling degree (%) Crabgrass [%]
CC(C)C(c1cnccc1C(F)(F)F)N(C)C(=O)Cc1ccccc1Br (stereo not shown) [I-15]	100

System: soybean
Test: Test Example 1: foliage treatment, upland pot test
Type: in vivo, Glycine max Merr.
Settings: crop, active ingredient 1000 g/ha, observed 18th to 23rd day, 0 = non-treated, 100 = complete kill
Outline: (§3)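 Pots of upland field soil were sown and sprayed post-emergence at soybean 0.1–0.4, wheat 1.3–2.4, rice 1.2–2.6 and barnyardgrass 1.3–2.8 leaf stages. Formulations were diluted in water at 500 L/ha with 0.1% (v/v) spreader. Growth control (0 = untreated, 100 = complete kill) was judged by eye 18–23 days later.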

SMILES	Growth controlling degree (%) Soybean [%]
CC(C)C(c1cnccc1C(F)(F)F)N(C)C(=O)Cc1ccccc1Br (stereo not shown) [I-15]	40

System: barnyardgrass
Test: Test Example 3: paddy pot test, application under submerged conditions
Type: in vivo, Echinochloa crus-galli L.
Settings: active ingredient 250 g/ha; submerged application at 0.5 leaf stage; visually observed 14 days after application; 0 = non-treated, 100 = complete kill
Outline: as §2

SMILES	Growth controlling degree (%) Barnyardgrass [%]
CC(C)C(c1cnccc1C(F)(F)F)N(C)C(=O)Cc1ccccc1Br (stereo not shown) [I-15]	100

System: barnyardgrass
Test: Test Example 1: foliage treatment, upland pot test
Type: in vivo, Echinochloa crus-galli L.
Settings: active ingredient 1000 g/ha, observed 18th to 23rd day, 0 = non-treated, 100 = complete kill
Outline: as §3

SMILES	Growth controlling degree (%) Barnyardgrass [%]
CC(C)C(c1cnccc1C(F)(F)F)N(C)C(=O)Cc1ccccc1Br (stereo not shown) [I-15]	70

System: crabgrass
Test: Test Example 1: foliage treatment, upland pot test
Type: in vivo, Digitaria sanguinalis L.
Settings: active ingredient 1000 g/ha, observed 18th to 23rd day, 0 = non-treated, 100 = complete kill

SMILES	Growth controlling degree (%) Crabgrass [%]
CC(C)C(c1cnccc1C(F)(F)F)N(C)C(=O)Cc1ccccc1Br (stereo not shown) [I-15]	70

System: rice
Test: Test Example 1: foliage treatment, upland pot test
Type: in vivo, Oryza sativa L.
Settings: crop, active ingredient 1000 g/ha, observed 18th to 23rd day, 0 = non-treated, 100 = complete kill
Outline: as §3

SMILES	Growth controlling degree (%) Rice [%]
CC(C)C(c1cnccc1C(F)(F)F)N(C)C(=O)Cc1ccccc1Br (stereo not shown) [I-15]	10

System: barnyardgrass
Test: Test Example 2: soil surface treatment, upland pot test
Type: in vivo, Echinochloa crus-galli L.
Settings: active ingredient 1000 g/ha, observed 20th to 28th day, 0 = non-treated, 100 = complete kill
Outline: as §1

SMILES	Growth controlling degree (%) Barnyardgrass [%]
CC(C)C(c1cnccc1C(F)(F)F)N(C)C(=O)Cc1ccccc1Br (stereo not shown) [I-15]	100

System: prickly sida
Test: Test Example 1: foliage treatment, upland pot test
Type: in vivo, Sida spinosa L.
Settings: active ingredient 1000 g/ha, observed 18th to 23rd day, 0 = non-treated, 100 = complete kill

SMILES	Growth controlling degree (%) Prickly sida [%]
CC(C)C(c1cnccc1C(F)(F)F)N(C)C(=O)Cc1ccccc1Br (stereo not shown) [I-15]	80

System: wheat
Test: Test Example 1: foliage treatment, upland pot test
Type: in vivo, Triticum spp.
Settings: crop, active ingredient 1000 g/ha, observed 18th to 23rd day, 0 = non-treated, 100 = complete kill
Outline: as §3

SMILES	Growth controlling degree (%) wheat [%]
CC(C)C(c1cnccc1C(F)(F)F)N(C)C(=O)Cc1ccccc1Br (stereo not shown) [I-15]	20

System: japanese bulrush
Test: Test Example 3: paddy pot test, application under submerged conditions
Type: in vivo, Scirpus juncoides
Settings: active ingredient 250 g/ha; submerged application at 0.5 leaf stage; visually observed 14 days after application; 0 = non-treated, 100 = complete kill
Outline: as §2

SMILES	Growth controlling degree (%) Japanese bulrush [%]
CC(C)C(c1cnccc1C(F)(F)F)N(C)C(=O)Cc1ccccc1Br (stereo not shown) [I-15]	95

System: rice (var. Nihonbare)
Test: Test Example 3: paddy pot test, transplanted rice
Type: in vivo, Oryza sativa L.
Settings: active ingredient 250 g/ha, applied 4th day after transplantation, visually observed 21st day after application, 0 = non-treated, 100 = complete kill
Outline: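 Rice (2-leaf stage) was transplanted 3 cm deep into puddled, leveled paddy soil under 3–4 cm flooding. On day 4 after transplanting, diluted wettable powder or emulsifiable concentrate was pipetted onto the water at a predetermined active-ingredient dose. Growth control (0 = untreated, 100 = complete kill) was scored visually 21 days later.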

SMILES	Growth controlling degree (%) Rice [%]
CC(C)C(c1cnccc1C(F)(F)F)N(C)C(=O)Cc1ccccc1Br (stereo not shown) [I-15]	10

System: redroot pigweed
Test: Test Example 1: foliage treatment, upland pot test
Type: in vivo, Amaranthus retroflexus L.
Settings: active ingredient 1000 g/ha, observed 18th to 23rd day, 0 = non-treated, 100 = complete kill

SMILES	Growth controlling degree (%) Redroot pigweed [%]
CC(C)C(c1cnccc1C(F)(F)F)N(C)C(=O)Cc1ccccc1Br (stereo not shown) [I-15]	70

System: green foxtail
Test: Test Example 1: foliage treatment, upland pot test
Type: in vivo, Setaria viridis L.
Settings: active ingredient 1000 g/ha, observed 18th to 23rd day, 0 = non-treated, 100 = complete kill

SMILES	Growth controlling degree (%) Green foxtail [%]
CC(C)C(c1cnccc1C(F)(F)F)N(C)C(=O)Cc1ccccc1Br (stereo not shown) [I-15]	80

Reference: patent US20050239656A1, “Pyridine compounds or salts thereof and herbicides containing the same” (priority 2002, published 2005)
